From US20250250265A1, “BENZOTHIAZOLE-PHENYLSULFONYL-PIPERIDINE ANALOGS AS ACTIVATORS OF NACYLPHOSPHATIDYLETHANOLAMINE HYDROLYZING PHOSPHOLIPASE D” (priority 2022, published 2025)
“Also recorded” adds a separate entry of the source.

How the values were obtained:
[1] = biological target: T1, recombinant mouse NAPE-PLD (Mus musculus, UniProt Q8BH82); assay: LC/MS NAPE-PLD assay with N-oleoyl-phosphatidylethanolamine (NOPE) as substrate; format: biochemical; conditions: NOPE 90 min (FIG. 19A)
T1 construct: hexahistidine (His6) (C); made in house; host or cells: E. coli
T1 sequence (Q8BH82 1-396): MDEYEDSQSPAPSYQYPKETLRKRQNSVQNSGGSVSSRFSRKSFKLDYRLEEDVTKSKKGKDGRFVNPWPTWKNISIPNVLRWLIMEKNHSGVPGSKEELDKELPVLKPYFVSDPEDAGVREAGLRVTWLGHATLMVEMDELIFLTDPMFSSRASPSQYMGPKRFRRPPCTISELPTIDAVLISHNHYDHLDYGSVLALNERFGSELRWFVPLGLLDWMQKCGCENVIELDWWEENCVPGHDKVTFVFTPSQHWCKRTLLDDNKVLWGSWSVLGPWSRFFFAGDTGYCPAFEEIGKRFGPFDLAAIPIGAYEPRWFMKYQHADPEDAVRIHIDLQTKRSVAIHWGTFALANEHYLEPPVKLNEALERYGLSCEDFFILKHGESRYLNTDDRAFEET
Protocol: For LC/MS assays, N-oleoyl-PE was added as substrate after […] pre-incubation with compound VU534, VU533, VU233 or vehicle. 90 min after N-oleoyl-PE was added, the reaction was quenched by adding 3 volumes of ice-cold methanol containing [^2H4]OEA and [^2H4]N-palmitoyl-PE and then 6 volumes of ice-cold chloroform.33 The lower phase was dried under nitrogen gas and dissolved in 100 μL mobile phase A. High performance liquid chromatography was performed using a 2.1 mm C18 guard column (Phenomenex AJ0-8782), and a rapid gradient ramp. Mobile phase A was 5:1:4 (v/v/v) isopropanol: methanol: water, with 0.2% v/v formic acid, 0.66 mM ammonium formate and 3 μM phosphoric acid included as additives. Mobile phase B was 0.2% (v/v) formic acid in isopropanol. Initial column conditions were 5% mobile phase B, followed by gradient ramp to 95% B over 0.5 min, held at 95% B for 2 min, the returned to initial conditions (5% B) over 1 min. Flow rate throughout was 100 μL/min. Injection volume was 2 μL. The sample injector needle was washed before each injection using a strong wash of methanol, and a weak wash of 1:1:1:1 (v/v/v/V) isopropanol: methanol: acetonitrile: water, with 0.2% formic acid, 0.3 mM ammonium formate, and 0.37 mM phosphoric acid included as additives. Multiple reaction monitoring for the following ions were monitored: OEA [M+H]^+: m/z 326.3→m/z 62.1; [^2H4]OEA [M+H]^+: m/z 330.3→m/z 66.1; N-oleoyl-PE [M+NH4]^+: m/z 693.5→m/z 308.3 (quantifier), m/z 693.5→m/z 271.2 (qualifier); [^2H4]N-palmitoyl-PE [M+NH4]^+: m/z 1003.8→m/z 286.3 (quantifier), m/z 1003.8→m/z 603.5 (qualifier). […]
To confirm the results of the fluorescence-based assays, an orthogonal biochemical Nape-pld assay based on LC/MS was employed. Recombinant mouse NAPE-PLD was pre-treated with VU534, VU533, VU233 or vehicle for 30 min, then N-oleoyl-phosphatidylethanolamine (NOPE) was added for 90 min, and the resulting levels of OEA and NOPE was measured by LC/MS. […]

[2] = system: bone marrow-derived macrophages (BMDM); assay: Efferocytosis assay with bone marrow-derived macrophages and apoptotic Jurkat cells; format: cell-based, mouse; conditions: 10 μM; for effect on efferocytosis by wild-type BMDM: 6 h before assay
Protocol: Male C57BL6/j wild-type or Napepld^−/− mice were euthanized with isoflurane and hind legs were removed. Marrow was flushed from femurs and tibias using DMEM containing 4.5 g/L glucose and a 26-gauge needle. Cell suspensions were passed over a 40-μm filter, centrifuged at 500×g, and resuspended in 50 ml of DMEM containing 4.5 g/L glucose, 20% L-cell conditioned media, 10% heat-inactivated FBS, and 1% penicillin/streptomycin. 10 ml of cell suspension was plated into each of five 100-mm dishes and incubated for four days at 37° C. and 5% CO2. On day four, non-adherent cells and debris were aspirated from the plates and replaced with fresh media. After 7 days of differentiation, cells were harvested for use in experiments.
Assays were performed according to previously described protocols. See e.g., Doran et al. J. Clin. Invest. 127(11): 4075-4089 (2017); Proto et al., Immunity 49(4): 666-677 (2018). Bone marrow-derived macrophages were seeded at 0.25×10^6 cells/well in a non-tissue culture-treated 24-well plate and allowed to adhere overnight. Macrophages were treated with various compounds at a final concentration of 10 μM or DMSO as a vehicle for 6 hours prior to each experiment. Jurkat cells were exposed to UV light (254 nm) for 5 minutes to induce apoptosis and then incubated in a 37° C. incubator with 5% CO2 for 2 hours. Surveillance staining of these cells routinely yielded approximately 80-90% apoptosis (Annexin V+) using this method. Apoptotic Jurkat cells were labeled with either CellVue Claret (Millipore Sigma) or Cell Trace Violet (Invitrogen) per the manufacturer's instructions. After staining, cells were resuspended in macrophage medium at a density of […] and 500 μL of this suspension was added to the drug-containing media on the macrophages to achieve a cell ratio of 3:1 Jurkats: macrophages. After incubating for 45 minutes at 37° C. and 5% CO2, the medium was aspirated, and the macrophages were gently washed twice with PBS to remove unbound apoptotic cells. Macrophages were then removed from the plate using Cell Stripper (Sigma), washed, resuspended in staining buffer consisting of 2% FBS in PBS with 2 mM EDTA, and blocked with anti-mouse CD16/32 antibodies for 15 minutes on ice. After blocking, cells were pelleted and resuspended with F4/80. Cells were incubated for 45 minutes on ice in the dark, then washed and resuspended in staining buffer for analysis. Cells were analyzed using an Attune NxT cytometer (Thermo Fisher) and data were analyzed using FlowJo software to quantify the proportion of F4/80^+ macrophages that co-stained for apoptotic cells (% efferocytosis).

With Cc1ccc(C)c2sc(NC(=O)C3CCN(S(=O)(=O)c4ccc(F)cc4)CC3)nc12 [VU533] the “effect on OEA/NOPE ratio” value [1] was “significantly increased the OEA/NOPE ratio” and the “effect on efferocytosis by wild-type BMDM” value (from here on “effect … by wild-type BMDM”) [2] was “significantly enhanced efferocytosis”.

O=C(Nc1nc2ccccc2s1)C1CCN(S(=O)(=O)c2ccc(F)c(Cl)c2)CC1 [VU233] was tested, and the “effect on OEA/NOPE ratio” value [1] was “no significant effect” and the “effect … by wild-type BMDM” value [2] was “modestly reduced efferocytosis”.

In the case of Cc1cc(C)c2sc(NC(=O)C3CCN(S(=O)(=O)c4ccc(F)cc4)CC3)nc2c1 [VU534, N-(5,7-Dimethylbenzo[d]thiazol-2-yl)-1-((4-fluorophenyl)sulfonyl)piperidine-4-carboxamide], the “effect on OEA/NOPE ratio” value [1] is reported as “significantly increased the OEA/NOPE ratio”, the “effect on efferocytosis by Napepld−/− (KO) BMDM” value ([2]; 6 h, KO BMDM (FIG. 21C)) is reported as “had no effect” and the “effect on efferocytosis by WT BMDM in WT versus KO experiment” value ([2]; 6 h, WT BMDM (FIG. 21C)) is reported as “significantly increased efferocytosis”. The “effect … by wild-type BMDM” value [2] was “increases efferocytosis capacity; also recorded: significantly enhanced efferocytosis”.
